Test results from patent publication US11993598B2, “Compounds for inhibiting EGFR kinase, preparation methods and uses thereof” (WIGEN BIOMEDICINE TECHNOLOGY (SHANGHAI) CO., LTD., priority 2019, dated 2024).
pIC50: −log10 of the molar value.

Assays:
EGFR-WT = EGFR-WT (Homo sapiens, UniProt P00533); test: Wild-type EGFR biochemical activity assay (HTRF)
Protocol: (§1) Assay 1: Wild-type EGFR, HER2 and HER4, and mutant EGFR biochemical activity assay
(§2) 10 nL of Serially diluted compounds were transferred to assay plates using the labcyte Echo 550, and 5 uL of 2× enzymes in assay buffer were subsequently dispensed. The assay plate was covered with an adhesive plate seal, and briefly spinned for 30 s at 1000 g. 5 uL of 2× TK-substrate-biotin and ATP mixed in assay buffer were added.
(§3) IC50 was calculated and analyzed using a 4 parametric logistic model.

LU-0387 = test: Xenograft mouse model LU-0387; format: in vivo, nude mice
EGFR T790M = EGFR T790M (Homo sapiens, UniProt P00533, T790M); test: Mutant EGFR biochemical activity assay (HTRF)
Protocol: as §1, §2, §3

EGFR Del19 = EGFR Del19 (Homo sapiens, UniProt P00533); test: Mutant EGFR biochemical activity assay (HTRF)
Protocol: as §1, §2, §3

EGFR D770GY = EGFR D770GY (Homo sapiens, UniProt P00533, D770Y/INS769G); test: Mutant EGFR biochemical activity assay (HTRF)
Protocol: as §1, §2, §3

EGFR T790M/L858R = EGFR T790M/L858R (Homo sapiens, UniProt P00533, L858R/T790M); test: Mutant EGFR biochemical activity assay (HTRF)
Protocol: as §1, §2, §3

[1] = target: EGFR D770_N771insNPG T790M (Homo sapiens, UniProt P00533, INS770NPG/T790M); test: Mutant EGFR biochemical activity assay (HTRF); details: read-out: IC50 (nM) EGFR D770_N771 insNPG T790M
Protocol: as §1, §2, §3

EGFR L792F = EGFR L792F (Homo sapiens, UniProt P00533, L792F); test: Mutant EGFR biochemical activity assay (HTRF)
Protocol: as §1, §2, §3

EGFR D770-N771insNPG = EGFR D770-N771insNPG (Homo sapiens, UniProt P00533, INS770NPG); test: Mutant EGFR biochemical activity assay (HTRF)
Protocol: as §1, §2, §3

EGFR L792H = EGFR L792H (Homo sapiens, UniProt P00533, L792H); test: Mutant EGFR biochemical activity assay (HTRF)
Protocol: as §1, §2, §3

EGFR A763_Y764insFHEA = EGFR A763_Y764insFHEA (Homo sapiens, UniProt P00533, INS763FHEA); test: Mutant EGFR biochemical activity assay (HTRF); details: read-out: IC50 (nM) EGFR A763_Y764 insFHEA
Protocol: as §1, §2, §3

[2] = test system: tumor growth with EGFR exon 20 insertions and T790M mutations; test: In vivo CDX and PDX mouse models, overall statement; parameters: species or system nude mice
Protocol: (§4) Assay 3. In vivo studies in cell line-derived (CDX) and patient derived xenografts (PDX) mouse models
(§5) Cells (H1975) or tissue pieces (LU0493 and LU0426) were implanted subcutaneously into the left armpit of nude mice. When the average tumor volume reached 100-150 mm^3, mice were randomized by tumor volume and treated with vehicle, compound 1 or poziotinib respectively. Tumor volume and body weight were measured twice per week. Mice were sacrificed on day 21 or day 28, and tumor volume and terminal body weight were recorded. The relative tumor volume, percent of treatment/control values and tumor growth inhibition were calculated and statistics was performed.
(§6) Terminal body weight changes were calculated as percentage of body changes from day 1 to day 21.

[3] = test system: PC9 cells expressing luciferase; test: In vivo orthotopic brain PC9 xenograft mouse model; details: oral
Protocol: Assay 4. In vivo orthotopic brain PC9 xenograft mouse model
3×10^5 PC9 cells expressing luciferase were injected to the mouse brain. Mice were randomized based on brain flurorescence intensity and body weight, and were orally administered vehicle or compound 1. Survival and body weights were monitored every day and mice with more than 20% body weight loss were sacrificed.

HER2 = HER2 (Homo sapiens, UniProt P04626); test: HER2 biochemical activity assay (HTRF)
Protocol: as §1, §2, §3

H1975 = test: Cell line-derived xenograft (CDX) mouse model; format: in vivo, nude mice
Protocol: as §4, §5, §6

[4] = target: Ba/F3_EGFR D770_N771insSVD (Homo sapiens, UniProt P00533, DUP768-770, cells depend on it); test: Cell proliferation assay (MTT); format: cell-based; details: three days, read-out: Ba/F3_EGFR D770_N771insSVD IC50
Protocol: (§7) A431 cells, H1975 and Ba/F3 cells expressing various mutant EGFR were harvested from exponential phase cultures and seeded in 96-well plates at a cell density of 3000 per well for A431 and H1975, and 10000 per well for Ba/F3 cells. After overnight attachment, compounds were 3-fold serially diluted and applied to cells at 30 μM, 10 μM, 3 μM, 1 μM, 0.3 μM, […], 0.03 μM and 0.01 μM with triplicates, and incubated for three days. 20 μL of 5 mg/mL MTT was added afterwards followed by the further addition of 50 μL 10% SDS together with 5% isobutyl alcohol in 0.01 mol/L HCl. The plates were incubated overnight. Absorbance (A) at a wavelength of 570 nm was quantified. Percentage of inhibition was used for the calculation of IC50 based on the bliss method.

[5] = test system: H1975 (EGFR L858R/T790M, NSCLC); test: Cell proliferation assay (MTT); format: cell-based; details: Homo sapiens, NCI-H1975, 72 h, three days
Protocol: as §7

[6] = target: Ba/F3_EGFR V769_D770insASV (Homo sapiens, UniProt P00533, DUP767-769, cells depend on it); test: Cell proliferation assay (MTT); format: cell-based; details: three days, read-out: Ba/F3_EGFR V769_D770insASV IC50
Protocol: as §7

[7] = test system: A431 (wild type EGFR, skin cancer); test: Cell proliferation assay (MTT); format: cell-based; details: Homo sapiens, A-431, 72 h, three days
Protocol: as §7

Ba/F3_EGFR V769_D770insASV, sequence (P00533 with tags, fused parts or gaps DUP767-769): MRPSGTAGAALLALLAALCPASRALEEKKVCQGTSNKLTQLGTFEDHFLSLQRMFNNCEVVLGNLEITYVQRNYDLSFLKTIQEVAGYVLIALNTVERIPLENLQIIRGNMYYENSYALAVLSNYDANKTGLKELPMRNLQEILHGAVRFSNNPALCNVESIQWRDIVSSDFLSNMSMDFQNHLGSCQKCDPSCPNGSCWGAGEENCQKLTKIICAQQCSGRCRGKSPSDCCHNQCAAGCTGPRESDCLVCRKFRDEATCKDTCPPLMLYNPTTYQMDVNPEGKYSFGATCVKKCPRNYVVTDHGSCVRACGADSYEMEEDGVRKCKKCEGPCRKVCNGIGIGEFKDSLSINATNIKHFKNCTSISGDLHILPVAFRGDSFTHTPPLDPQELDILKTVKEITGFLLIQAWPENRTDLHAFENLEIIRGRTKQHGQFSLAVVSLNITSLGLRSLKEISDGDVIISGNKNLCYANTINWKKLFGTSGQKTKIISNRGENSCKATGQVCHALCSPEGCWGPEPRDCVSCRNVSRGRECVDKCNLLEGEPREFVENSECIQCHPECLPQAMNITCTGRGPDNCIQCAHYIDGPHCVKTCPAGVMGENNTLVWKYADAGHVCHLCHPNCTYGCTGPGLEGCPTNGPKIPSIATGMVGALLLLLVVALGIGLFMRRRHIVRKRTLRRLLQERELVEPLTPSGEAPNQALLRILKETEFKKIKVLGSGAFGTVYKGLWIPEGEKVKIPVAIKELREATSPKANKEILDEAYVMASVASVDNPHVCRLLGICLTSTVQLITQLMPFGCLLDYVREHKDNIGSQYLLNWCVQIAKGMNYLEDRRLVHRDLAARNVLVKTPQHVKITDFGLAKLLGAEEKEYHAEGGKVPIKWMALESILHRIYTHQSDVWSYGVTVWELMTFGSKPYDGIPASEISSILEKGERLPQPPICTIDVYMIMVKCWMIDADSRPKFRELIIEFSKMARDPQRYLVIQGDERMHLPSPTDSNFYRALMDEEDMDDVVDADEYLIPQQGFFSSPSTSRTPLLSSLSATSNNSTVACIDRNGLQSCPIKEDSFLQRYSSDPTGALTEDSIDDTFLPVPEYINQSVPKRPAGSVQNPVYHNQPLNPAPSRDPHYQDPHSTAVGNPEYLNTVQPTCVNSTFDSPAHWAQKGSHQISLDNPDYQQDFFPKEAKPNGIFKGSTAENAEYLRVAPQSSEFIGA
EGFR T790M, sequence (P00533 25-1210 T790M): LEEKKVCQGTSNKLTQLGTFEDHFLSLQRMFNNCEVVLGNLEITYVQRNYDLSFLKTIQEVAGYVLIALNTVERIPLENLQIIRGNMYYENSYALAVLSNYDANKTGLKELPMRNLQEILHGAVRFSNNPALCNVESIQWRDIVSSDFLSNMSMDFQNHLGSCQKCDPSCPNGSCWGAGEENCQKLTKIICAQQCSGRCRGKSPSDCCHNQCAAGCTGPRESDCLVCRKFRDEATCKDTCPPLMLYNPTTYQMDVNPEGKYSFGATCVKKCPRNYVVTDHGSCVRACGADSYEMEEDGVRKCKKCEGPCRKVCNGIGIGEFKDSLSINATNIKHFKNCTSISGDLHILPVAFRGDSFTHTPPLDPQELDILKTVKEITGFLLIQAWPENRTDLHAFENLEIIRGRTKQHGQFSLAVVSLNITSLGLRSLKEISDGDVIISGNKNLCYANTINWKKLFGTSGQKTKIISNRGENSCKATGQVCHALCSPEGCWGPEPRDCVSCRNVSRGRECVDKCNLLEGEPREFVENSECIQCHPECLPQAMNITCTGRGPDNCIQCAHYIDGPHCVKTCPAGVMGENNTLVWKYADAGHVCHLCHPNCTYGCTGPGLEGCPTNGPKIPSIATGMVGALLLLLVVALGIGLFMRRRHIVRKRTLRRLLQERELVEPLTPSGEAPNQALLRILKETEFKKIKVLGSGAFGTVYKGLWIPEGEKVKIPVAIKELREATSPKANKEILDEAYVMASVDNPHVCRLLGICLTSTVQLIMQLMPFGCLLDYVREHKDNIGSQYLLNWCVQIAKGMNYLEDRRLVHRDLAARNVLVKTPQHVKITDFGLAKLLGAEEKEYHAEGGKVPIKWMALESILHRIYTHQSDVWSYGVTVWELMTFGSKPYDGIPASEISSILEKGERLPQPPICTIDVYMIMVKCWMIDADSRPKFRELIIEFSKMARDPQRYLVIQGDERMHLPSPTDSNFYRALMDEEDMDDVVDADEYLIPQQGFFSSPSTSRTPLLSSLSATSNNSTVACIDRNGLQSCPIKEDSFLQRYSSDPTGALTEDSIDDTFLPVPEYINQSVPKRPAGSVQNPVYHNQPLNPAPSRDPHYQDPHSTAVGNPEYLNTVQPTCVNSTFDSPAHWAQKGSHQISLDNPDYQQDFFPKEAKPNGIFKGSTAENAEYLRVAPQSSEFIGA
EGFR L792H, sequence (P00533 25-1210 L792H): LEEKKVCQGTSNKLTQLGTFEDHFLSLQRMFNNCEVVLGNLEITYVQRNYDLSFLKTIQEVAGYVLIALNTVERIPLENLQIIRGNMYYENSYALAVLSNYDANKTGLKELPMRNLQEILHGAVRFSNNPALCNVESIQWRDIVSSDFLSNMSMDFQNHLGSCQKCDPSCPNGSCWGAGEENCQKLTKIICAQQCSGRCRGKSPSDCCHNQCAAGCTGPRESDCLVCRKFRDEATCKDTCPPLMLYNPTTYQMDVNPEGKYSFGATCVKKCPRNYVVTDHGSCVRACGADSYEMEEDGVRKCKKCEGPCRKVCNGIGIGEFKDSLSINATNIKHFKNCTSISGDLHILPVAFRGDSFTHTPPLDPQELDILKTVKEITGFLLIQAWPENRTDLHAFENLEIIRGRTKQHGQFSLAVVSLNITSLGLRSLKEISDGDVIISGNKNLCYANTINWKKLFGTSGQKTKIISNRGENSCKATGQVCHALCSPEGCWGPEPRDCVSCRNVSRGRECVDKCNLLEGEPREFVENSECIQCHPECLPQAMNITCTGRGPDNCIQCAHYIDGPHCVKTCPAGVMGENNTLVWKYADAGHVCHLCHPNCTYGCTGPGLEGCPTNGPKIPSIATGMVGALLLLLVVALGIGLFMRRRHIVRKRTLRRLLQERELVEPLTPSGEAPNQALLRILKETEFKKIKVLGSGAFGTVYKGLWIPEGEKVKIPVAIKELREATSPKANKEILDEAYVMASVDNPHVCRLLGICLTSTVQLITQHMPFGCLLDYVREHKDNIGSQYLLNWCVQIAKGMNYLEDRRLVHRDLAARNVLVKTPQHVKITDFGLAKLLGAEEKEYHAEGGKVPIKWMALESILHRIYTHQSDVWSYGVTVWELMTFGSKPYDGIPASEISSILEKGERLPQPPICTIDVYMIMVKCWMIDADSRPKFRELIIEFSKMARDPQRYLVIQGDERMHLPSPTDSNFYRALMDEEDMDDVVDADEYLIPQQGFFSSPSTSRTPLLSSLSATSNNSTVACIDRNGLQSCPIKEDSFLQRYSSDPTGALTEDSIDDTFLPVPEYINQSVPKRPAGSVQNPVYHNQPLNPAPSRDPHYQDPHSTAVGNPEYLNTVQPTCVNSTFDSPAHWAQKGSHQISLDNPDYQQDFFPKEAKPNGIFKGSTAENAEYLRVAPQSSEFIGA
EGFR D770-N771insNPG, sequence (P00533 with tags, fused parts or gaps INS770NPG limits assumed): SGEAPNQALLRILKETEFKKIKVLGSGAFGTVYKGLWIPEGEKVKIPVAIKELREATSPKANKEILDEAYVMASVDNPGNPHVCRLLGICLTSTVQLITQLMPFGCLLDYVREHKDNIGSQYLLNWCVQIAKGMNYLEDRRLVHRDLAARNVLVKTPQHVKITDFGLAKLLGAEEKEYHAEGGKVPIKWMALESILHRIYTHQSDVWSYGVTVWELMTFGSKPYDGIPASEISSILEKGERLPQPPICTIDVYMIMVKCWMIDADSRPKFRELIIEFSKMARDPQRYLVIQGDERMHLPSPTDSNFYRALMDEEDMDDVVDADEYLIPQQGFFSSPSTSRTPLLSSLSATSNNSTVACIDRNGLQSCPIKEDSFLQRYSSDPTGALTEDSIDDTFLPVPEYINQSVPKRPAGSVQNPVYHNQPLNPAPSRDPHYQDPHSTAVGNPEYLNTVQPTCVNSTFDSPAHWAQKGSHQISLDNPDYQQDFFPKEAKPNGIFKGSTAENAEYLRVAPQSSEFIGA
EGFR D770GY, sequence (P00533 with tags, fused parts or gaps INS769G/D770Y limits assumed): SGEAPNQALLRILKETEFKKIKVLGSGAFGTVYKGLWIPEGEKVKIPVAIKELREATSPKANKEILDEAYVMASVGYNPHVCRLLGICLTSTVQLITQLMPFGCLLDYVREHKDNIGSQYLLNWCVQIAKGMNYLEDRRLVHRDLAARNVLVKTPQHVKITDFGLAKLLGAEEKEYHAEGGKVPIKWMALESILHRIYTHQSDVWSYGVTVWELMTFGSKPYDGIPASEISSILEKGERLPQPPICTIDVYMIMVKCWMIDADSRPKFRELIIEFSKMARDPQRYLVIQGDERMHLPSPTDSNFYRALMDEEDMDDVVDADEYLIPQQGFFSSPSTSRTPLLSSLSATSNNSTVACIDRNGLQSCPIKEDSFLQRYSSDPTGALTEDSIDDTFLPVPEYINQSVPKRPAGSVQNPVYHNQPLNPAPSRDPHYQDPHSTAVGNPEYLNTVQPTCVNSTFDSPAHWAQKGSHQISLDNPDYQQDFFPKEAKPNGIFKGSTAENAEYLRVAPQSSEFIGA

## C=CC(=O)Nc1cc(Nc2nccc(-n3c(=O)n4c5c(cc(F)cc53)CCC4)n2)c(OC)cc1N(C)CCN(C)C [Compound 1, N-(2-((2-(dimethylamino)ethyl)(methyl)amino)-5-((4-(8-fluoro-2-oxo-5,6-dihydro-4H-imidazo[4,5,1-ij]quinolin-1(2H)-yl)pyrimidin-2-yl)amino)-4-methoxyphenyl)acrylamide]
EGFR-WT
  IC50: 1.56 nM
LU-0387; LU-0387, 30 mg/kg compound 1
  TGI (%): 42%
LU-0387; LU-0387, 30 mg/kg compound 1, day 1 to day 21
  Terminal body weight changes (%): −7.75%
LU-0387; LU-0387, 60 mg/kg compound 1
  TGI (%): 95%
LU-0387; LU-0387, 60 mg/kg compound 1, day 1 to day 21
  Terminal body weight changes (%): 1.26%
EGFR T790M
  IC50: 0.0526 nM
EGFR Del19
  IC50: 0.175 nM
EGFR D770GY
  IC50: 0.0649 nM
EGFR T790M/L858R
  IC50: 0.0639 nM
[1]
  IC50: 0.049 nM
EGFR L792F
  IC50: 1.26 nM
EGFR D770-N771insNPG
  IC50: 0.063 nM
EGFR L792H
  IC50: 27.6 nM
EGFR A763_Y764insFHEA
  IC50: 0.264 nM
[2]
  impact on body weight compared to poziotinib, in words: less impacts on body weight
[3]; 30 mg/kg QD, Day 16
  Mice Survival Rate (%): 100%
[3]; 30 mg/kg QD, Day 17
  Mice Survival Rate (%): 100%
[3]; 30 mg/kg QD, Day 18
  Mice Survival Rate (%): 100%
[3]; 30 mg/kg QD, Day 22
  Mice Survival Rate (%): 100%
[3]; 30 mg/kg QD, Day 24
  Mice Survival Rate (%): 100%
[3]; 30 mg/kg QD, Day 26
  Mice Survival Rate (%): 100%
[3]; 30 mg/kg QD, Day 28
  Mice Survival Rate (%): 100%
[3]; 60 mg/kg BID, Day 16
  Mice Survival Rate (%): 100%
[3]; 60 mg/kg BID, Day 17
  Mice Survival Rate (%): 100%
[3]; 60 mg/kg BID, Day 18
  Mice Survival Rate (%): 100%
[3]; 60 mg/kg BID, Day 22
  Mice Survival Rate (%): 100%
[3]; 60 mg/kg BID, Day 24
  Mice Survival Rate (%): 100%
[3]; 60 mg/kg BID, Day 26
  Mice Survival Rate (%): 100%
[3]; 60 mg/kg BID, Day 28
  Mice Survival Rate (%): 100%
[3]; 60 mg/kg QD, Day 16
  Mice Survival Rate (%): 100%
[3]; 60 mg/kg QD, Day 17
  Mice Survival Rate (%): 100%
[3]; 60 mg/kg QD, Day 18
  Mice Survival Rate (%): 100%
[3]; 60 mg/kg QD, Day 22
  Mice Survival Rate (%): 100%
[3]; 60 mg/kg QD, Day 24
  Mice Survival Rate (%): 100%
[3]; 60 mg/kg QD, Day 26
  Mice Survival Rate (%): 100%
[3]; 60 mg/kg QD, Day 28
  Mice Survival Rate (%): 100%
HER2
  IC50: 35.1 nM
H1975; H1975, 15 mg/kg compound 1
  TGI (%): 98%
H1975; H1975, 15 mg/kg compound 1, day 1 to day 21
  Terminal body weight changes (%): 3.9%
H1975; H1975, 30 mg/kg compound 1
  TGI (%): 106%
H1975; H1975, 30 mg/kg compound 1, day 1 to day 21
  Terminal body weight changes (%): 5.1%
H1975; H1975, 60 mg/kg compound 1
  TGI (%): 108%
H1975; H1975, 60 mg/kg compound 1, day 1 to day 21
  Terminal body weight changes (%): −4.1%
[4]
  GI50: 7.06 nM
[5]
  pIC50: 7.28
[6]
  GI50: 20.2 nM
[7]
  pIC50: 6.80
